Data reported in patent publication US20110088107A1, “COMPOSITIONS AND METHODS FOR DERIVING OR CULTURING PLURIPOTENT CELLS” (priority 2009, published 2011).

What was measured:
129 EpiSC cells = experiment: Dependence of pluripotency on signaling pathways, EpiSC; type: cell-based, mouse; details: epiESM, Day 6
Description: (§1) FIG. 21 illustrates the dependence of pluripotency states on distinct signaling pathways. 129 mES or EpiSC cell samples were equally divided and plated on irradiated MEFs in the indicated growth conditions (mESM or epiESM) in which these cell lines are normally maintained, and 24 hours later the wells were supplemented with either JAKi or ALKi or were kept without any inhibitor. Representative images at Day 6 of the experiment are shown. EpiSC cells as previously described, differentiated upon introduction of ALK inhibitors, while mES cells differentiate upon blocking of Stat3 signaling by the JAK inhibitor.

naive-hESCs/hiPSCs = experiment: Signaling dependence of pluripotent cell lines, naive-hESC/hiPSC; type: cell-based, human; details: grown in PD/CH/FK/LIF, inhibitor or factor added
Description: (§2) Pluripotent cells were equally divided and plated on feeders in the indicated growth medium in which these cell lines are normally maintained, and 36 hours later the wells were supplemented with the indicated inhibitors or growth factors. After seven days, wells were fixed and stained to determine the relative percentage of colonies positive for pluripotency markers. SSEA1 staining was used for mouse stem cells. Colony formation was normalized to an internal control “Growth medium” without inhibitors (first left column). Normalized percentages lower than 5% are defined as “sensitivity” to the presence of the supplemented inhibitor. (B-C) Western blot analysis of total ERK1/2, phosphorylated ERK1/2 (pERK1/2) and phosphorylated Stat3 (pStat3). WIBR3 hESC and C1 hiPSC were grown in traditional bFGF/Activin containing media while naive-hESC/hiPSCs were grown in N2B27 PD/CH/FOR/LIF. ‘2×LIF’ indicates two fold increase in LIF concentration. (D) LIF/Stat3 is required for stabilization of naive-hESC/hiPSCs. Naïve NOD mESCs, WIBR3.5 and WIBR3.1 naive-hESC, and C1 naïve-hiPSCs were electroporated with a pBRY-CAGGS-flox-DsRedT4-IP control plasmid, a plasmid encoding a dominant negative Stat3 Y705F mutant (Stat3-DN), or a plasmid Stat3-C constitutively active mutant (pBRY-Stat3-CA). Cells were passaged three times in the presence of puromycin. After 20 days, colonies positive for pluripotency markers were counted and normalized to colonies from cells electroporated with empty vector (n=3 replicates for each condition). (E) RT-PCR expression of early germ cell markers in the presence or absence of BMP4/7/8 cytokines for 7 days. (F) Representative FISH analysis for XIST RNA (red) and Cot1 nuclear RNA (green). Pri-WIBR3.2 cell line was analyzed after passaging in conventional bFGF/serum-containing human ESC growth conditions. Numbers indicate average percentage of XIST positive nuclei counted.
(§3) Small molecules and cytokines were purchased from Tocris, Calbiochem or Sigma, and were supplemented as indicated at the following final concentration: JAK inhibitor (JAKi, 6 μM), Kenpaullone (KP, 5 μM), PD0325901 (PD, 1 μM); CHIR99021 (CH, […]), Forskolin (FK, 10 μM), FGF4-Receptor inhibitors PD173074 (0.1 μM) and SU5401 (2 μM); TGFβ/ALK inhibitors A83-01 (1 μM), RepSox (1 μM), ALK inhibitor (ALKi—SB431542, 2 μM); AICAR (0.5 mM); BixO1294 (1 μM); BayK8644 (1 μM); recombinant human BMP4 (10 ng/ml), recombinant human IL-6 (10 ng/ml), recombinant human TGFβ (500 ng/ml), Media with inhibitors was routinely replaced every 48 hours to sustain activity of compounds.

hESCs = experiment: Signaling dependence of pluripotent cell lines, conventional hESCs; type: cell-based, human; details: normal growth medium, inhibitor or factor added
Description: Pluripotent cells were equally divided and plated on feeders in the indicated growth medium in which these cell lines are normally maintained, and 36 hours later the wells were supplemented with the indicated inhibitors or growth factors. After seven days, wells were fixed and stained to determine the relative percentage of colonies positive for pluripotency markers. SSEA1 staining was used for mouse stem cells. Colony formation was normalized to an internal control “Growth medium” without inhibitors (first left column). […] (B-C) Western blot analysis of total ERK1/2, phosphorylated ERK1/2 (pERK1/2) and phosphorylated Stat3 (pStat3). WIBR3 hESC and C1 hiPSC were grown in traditional bFGF/Activin containing media while naive-hESC/hiPSCs were grown in N2B27 PD/CH/FOR/LIF. ‘2×LIF’ indicates two fold increase in LIF concentration. […] Cells were passaged three times in the presence of puromycin. […] (E) RT-PCR expression of early germ cell markers in the presence or absence of BMP4/7/8 cytokines for 7 days. (F) Representative FISH analysis for XIST RNA (red) and Cot1 nuclear RNA (green). Pri-WIBR3.2 cell line was analyzed after passaging in conventional bFGF/serum-containing human ESC growth conditions.

mEpiSCs = experiment: Signaling dependence of pluripotent cell lines, mEpiSCs; type: cell-based, mouse; details: normal growth medium, inhibitor or factor added
Description: as §2, §3

mESCs = experiment: Signaling dependence of pluripotent cell lines, mESCs; type: cell-based, mouse; details: normal growth medium, inhibitor or factor added
Description: Pluripotent cells were equally divided and plated on feeders in the indicated growth medium in which these cell lines are normally maintained, and 36 hours later the wells were supplemented with the indicated inhibitors or growth factors. After seven days, wells were fixed and stained to determine the relative percentage of colonies positive for pluripotency markers. SSEA1 staining was used for mouse stem cells. Colony formation was normalized to an internal control “Growth medium” without inhibitors (first left column). Normalized percentages lower than 5% are defined as “sensitivity” to the presence of the supplemented inhibitor. (B-C) Western blot analysis of total ERK1/2, phosphorylated ERK1/2 (pERK1/2) and phosphorylated Stat3 (pStat3). WIBR3 hESC and C1 hiPSC were grown in traditional bFGF/Activin containing media while naive-hESC/hiPSCs were grown in N2B27 PD/CH/FOR/LIF. ‘2×LIF’ indicates two fold increase in LIF concentration. (D) LIF/Stat3 is required for stabilization of naive-hESC/hiPSCs. Naïve NOD mESCs, WIBR3.5 and WIBR3.1 naive-hESC, and C1 naïve-hiPSCs were electroporated with a pBRY-CAGGS-flox-DsRedT4-IP control plasmid, a plasmid encoding a dominant negative Stat3 Y705F mutant (Stat3-DN), or a plasmid Stat3-C constitutively active mutant (pBRY-Stat3-CA). Cells were passaged three times in the presence of puromycin. After 20 days, colonies positive for pluripotency markers were counted and normalized to colonies from cells electroporated with empty vector (n=3 replicates for each condition). (E) RT-PCR expression of early germ cell markers in the presence or absence of BMP4/7/8 cytokines for 7 days. (F) Representative FISH analysis for XIST RNA (red) and Cot1 nuclear RNA (green). Pri-WIBR3.2 cell line was analyzed after passaging in conventional bFGF/serum-containing human ESC growth conditions. Numbers indicate average percentage of XIST positive nuclei counted. […]

[1] = tested on: naive human pluripotent stem cells; experiment: Long-term propagation of naive human pluripotent stem cells; type: cell-based; details: genetically unmodified forskolin-dependent naive cells
Description: Naïve human pluripotent cells were grown in serum-free N2B27 based media. 500 ml of media was generated by including: 240 ml of DMEM/F12 (Invitrogen #11320), 240 ml of Neurobasal media (Invitrogen #21103), 5 ml of N2 supplement (Invitrogen #17502048), 10 ml B27 supplement (17504044), 10 μg of recombinant human LIF (Millipore, LIF1005), 1 mM glutamine (Invitrogen), 1% nonessential amino acids (Invitrogen), 0.1 mM β-mercaptoethanol (Sigma), pen/strep (Invitrogen), 5 mg/ml bovine serum albumin (Sigma) and small molecule inhibitors as indicated. Naïve-hESCs/hiPSCs were kept on mitomycin C (MMC)-inactivated mouse embryonic fibroblast (MEF) feeder cells, unless indicated otherwise, and where passage by single cell trypsinization every 5-10 days. Throughout the manuscript, indicated passage numbers of naïve-hiPSC/hESCs indicates number of passages counted after induction of the naïve state. The C1 secondary fibroblast cells (19), harbors Doxycycline (DOX) lentiviral vectors encoding Oct4, Sox2 and Klf4 reprogramming factors (45) and a constitutively active lentivirus encoding the reverse tetracycline transactivator (19), were grown in the presence of Dox in N2B27 media supplemented with different inhibitor combinations on gelatin coated plates, until initial PSC colonies were observed and subcloned. Mouse EpiSCs were derived and propagated as previously described (3,4). […]

129 mES cells = experiment: Dependence of pluripotency on signaling pathways, 129 mES; type: cell-based, mouse; details: mESM, Day 6
Description: as §1

[2] = tested on: VASA, BLIMP1 and DAZL in hESCs; experiment: RT-PCR of early germ cell markers, hESCs; type: cell-based, human; details: 7 days
Description: (§4) Pluripotent cells were equally divided and plated on feeders in the indicated growth medium in which these cell lines are normally maintained, and 36 hours later the wells were supplemented with the indicated inhibitors or growth factors. After seven days, wells were fixed and stained to determine the relative percentage of colonies positive for pluripotency markers. SSEA1 staining was used for mouse stem cells. Colony formation was normalized to an internal control “Growth medium” without inhibitors (first left column). Normalized percentages lower than 5% are defined as “sensitivity” to the presence of the supplemented inhibitor. (B-C) Western blot analysis of total ERK1/2, phosphorylated ERK1/2 (pERK1/2) and phosphorylated Stat3 (pStat3). WIBR3 hESC and C1 hiPSC were grown in traditional bFGF/Activin containing media while naive-hESC/hiPSCs were grown in N2B27 PD/CH/FOR/LIF. ‘2×LIF’ indicates two fold increase in LIF concentration. (D) LIF/Stat3 is required for stabilization of naive-hESC/hiPSCs. […] After 20 days, colonies positive for pluripotency markers were counted and normalized to colonies from cells electroporated with empty vector (n=3 replicates for each condition). […] Pri-WIBR3.2 cell line was analyzed after passaging in conventional bFGF/serum-containing human ESC growth conditions. Numbers indicate average percentage of XIST positive nuclei counted. […]

[3] = tested on: VASA, BLIMP1 and DAZL in naive-hESCs; experiment: RT-PCR of early germ cell markers, naive-hESCs; type: cell-based, human; details: 7 days
Description: as §4

| Molecule | effect on pluripotency of EpiSC cells (129 EpiSC cells) | effect on pluripotency of naive-hESCs/hiPSCs (naive-hESCs/hiPSCs) | effect on pluripotency of conventional hESCs (hESCs) | effect on pluripotency of mEpiSCs (mEpiSCs) | effect on pluripotency of mESCs (mESCs) | number of passages cells could be maintained [1] | effect on pluripotency of 129 mES cells (129 mES cells) | activation of germ cell markers VASA, BLIMP1 and DAZL in hESCs [2] | activation of germ cell markers VASA, BLIMP1 and DAZL in naive-hESCs [3] |
| --- | --- | --- | --- | --- | --- | --- | --- | --- | --- |
| NC(=O)c1ccc(-c2nc(-c3ccc4c(c3)OCO4)c(-c3ccccn3)[nH]2)cc1 [ALKi] | differentiated | maintained their pluripotent state | rapidly differentiated | rapidly differentiated | maintained their pluripotent state |  |  |  |  |
| C=C[C@@]1(C)CC(=O)[C@]2(O)[C@@]3(C)[C@@H](O)CCC(C)(C)[C@@H]3[C@H](O)[C@H](OC(C)=O)[C@@]2(C)O1 [Forskolin] |  |  |  |  |  | 15-20 passages |  |  |  |
| CC(C)(C)c1nc2c3cc[nH]c(=O)c3c3cc(F)ccc3c2[nH]1 [JAKi] |  | readily differentiated | resistant |  |  |  | differentiate |  |  |
| BMP4: recombinant human BMP4 growth factor |  | but not of naive-hESCs/hiPSCs or mESCs | resulted in the differentiation | resulted in the differentiation |  |  |  | readily activated | no up-regulation |
